Assay results from US9732094B2, “Arylquinazolines” (Merck Patent GmbH, priority 2013, dated 2017).
Read-outs that look alike come from different tables or passages of the source.

Assays:
DNA-PK = DNA-PK (Homo sapiens (Human), UniProt P78527); assay: DNA-PK assay (biochemical), flashplate 33P-ATP kinase assay
Summary of the method: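 Radiometric kinase reaction in streptavidin-coated flashplates, stopped with 200 mM EDTA, then 30 min room-temperature incubation and saline washes.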

Kv11.1 (hERG) = Kv11.1 (hERG) (Homo sapiens (Human), UniProt Q12809); assay: Kv11.1 (hERG) ion channel activity (patch clamp assay), HEK293 cells transfected with hERG gene
Chain of Kv11.1 (hERG) (Q12809 whole entry): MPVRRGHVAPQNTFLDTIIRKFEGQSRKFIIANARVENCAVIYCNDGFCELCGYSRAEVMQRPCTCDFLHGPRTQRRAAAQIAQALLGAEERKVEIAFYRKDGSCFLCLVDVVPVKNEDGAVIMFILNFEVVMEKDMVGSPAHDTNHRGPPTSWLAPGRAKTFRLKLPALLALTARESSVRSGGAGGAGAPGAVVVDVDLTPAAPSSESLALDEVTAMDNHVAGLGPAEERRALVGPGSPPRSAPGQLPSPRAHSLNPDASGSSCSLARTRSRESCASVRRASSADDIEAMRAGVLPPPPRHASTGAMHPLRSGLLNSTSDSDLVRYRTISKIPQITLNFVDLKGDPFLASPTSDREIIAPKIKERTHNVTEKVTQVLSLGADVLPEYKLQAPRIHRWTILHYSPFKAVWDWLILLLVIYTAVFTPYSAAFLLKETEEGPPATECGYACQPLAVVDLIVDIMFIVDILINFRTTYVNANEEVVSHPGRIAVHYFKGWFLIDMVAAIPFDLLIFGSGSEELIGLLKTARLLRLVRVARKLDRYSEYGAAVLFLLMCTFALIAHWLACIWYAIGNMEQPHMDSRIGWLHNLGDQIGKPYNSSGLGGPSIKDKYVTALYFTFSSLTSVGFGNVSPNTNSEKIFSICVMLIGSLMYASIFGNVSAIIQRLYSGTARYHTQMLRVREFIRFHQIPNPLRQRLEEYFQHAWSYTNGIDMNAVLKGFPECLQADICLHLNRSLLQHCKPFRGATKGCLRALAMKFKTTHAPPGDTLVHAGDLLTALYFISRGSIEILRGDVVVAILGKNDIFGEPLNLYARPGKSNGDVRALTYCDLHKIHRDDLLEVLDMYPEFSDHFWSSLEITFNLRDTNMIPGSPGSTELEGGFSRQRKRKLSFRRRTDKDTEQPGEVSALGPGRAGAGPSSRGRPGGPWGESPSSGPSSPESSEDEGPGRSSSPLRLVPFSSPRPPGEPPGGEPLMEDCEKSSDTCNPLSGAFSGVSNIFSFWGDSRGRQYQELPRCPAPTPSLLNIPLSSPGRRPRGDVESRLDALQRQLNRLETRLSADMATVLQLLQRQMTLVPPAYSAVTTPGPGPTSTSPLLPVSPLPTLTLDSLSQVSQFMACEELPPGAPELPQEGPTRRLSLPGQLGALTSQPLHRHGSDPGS

[1] = target: DNA-PK phosphorylation at serine 2056 (Homo sapiens (Human), UniProt P78527); assay: DNA-PK phosphorylation at serine 2056 (cellular), bleomycin-treated HCT116 cells, ELISA; format: cell-based; settings: read-out: IC50 pDNA-PK
Summary of the method: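 HCT116, MEM alpha + 10% FCS, 37 °C/10% CO2, seeded o/n. Cpd + 10 μM bleomycin, 6 h. ELISA, chemiluminescence; phospho/total DNA-PKcs ratio, DMSO = blank.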

[2] = read-out: Ki [Kv1.11 hERG], hERG patch clamp assay (cells without asterisk)
[3] = cellular DNA-PK phosphorylation at serine 2056, HCT116
[4] = Ki [Kv1.11 hERG], hERG patch clamp assay (cells without asterisk)
[5] = read-out: Ki [Kv1.11 hERG], patch clamp, HEK293 transfected with hERG gene
[6] = cellular, HCT116 cells, 10 μM bleomycin, six hours
[7] = Ki [Kv1.11 hERG], patch clamp, HEK293 transfected with hERG gene

Compound | IC50 (DNA-PK; biochemical DNA-PK assay) [nM] | IC50 [1, 3] [nM] | IC50 (DNA-PK; enzymatic, 5 μM ATP) [nM] | IC50 [1, 6] [nM] | Ki (Kv11.1 (hERG); [2]) [nM] | further results
Cc1ncc(C(O)c2ccc(F)c(-c3ncnc4cc(N5CCOCC5)ccc34)c2)nc1C (stereo not drawn) [Example 314, (5,6-Dimethyl-pyrazin-2-yl)-[4-fluoro-3-(7-morpholin-4-yl-quinazolin-4-yl)-phenyl]methanol] | 7 to 30 | 500 to 5000 | – | – | – | Ki (Kv11.1 (hERG); [4]): 15000 to 25000 nM
OC(c1ccc(Cl)nn1)c1cc(-c2ncnc3cc(N4CCOCC4)ccc23)c(F)cc1F (stereo not drawn) [Example 49, (6-Chloro-pyridazin-3-yl)-[2,4-difluoro-5-(7-morpholin-4-yl-quinazolin-4-yl)phenyl]-methanol] | – | – | < 3 | 500 to 5000 | – | Ki (Kv11.1 (hERG); [5]): > 25000 nM
CC(C#N)Oc1ccc(C(O)c2cc(-c3ncnc4cc(N5CCOCC5)ccc34)c(F)cc2Cl)nn1 (single isomer, unassigned) [Example 102, 2-(6-{[2-Chloro-4-fluoro-5-(7-morpholin-4-yl-quinazolin-4-yl)-phenyl)hydroxy-methyl}pyridazin-3-yloxy)propionitrile] | – | – | < 3 | < 500 | – | Ki (Kv11.1 (hERG); [7]): 15000 to 25000 nM
CCOc1ccc(C(O)c2ccc(F)c(-c3ncnc4cc(N5CCOCC5)ccc34)c2)nn1 (stereo not drawn) [Example 134, (6-Ethoxy-pyridazin-3-yl)-[4-fluoro-3-(7-morpholin-4-yl-quinazolin-4-yl)-phenyl]methanol] | – | – | 7 to 30 | 500 to 5000 | – | Ki (Kv11.1 (hERG); [7]): 10000 to 15000 nM
Cc1nccnc1Cc1ccc(F)c(-c2ncnc3cc(N4CCOCC4)ccc23)c1 [Example 349, 4-[2-Fluoro-5-(3-methyl-pyrazin-2-ylmethyl)phenyl]-7-morpholin-4-yl-quinazoline] | 3 to 7 | < 500 | – | – | > 25000 | –
Cc1cc(C(C(N)=O)c2cc(-c3ncnc4cc(N5CCOCC5)ccc34)c(F)cc2Cl)n(C)c(=O)c1 (stereo not drawn) [Example 334, 2-[2-Chloro-4-fluoro-5-(7-morpholin-4-yl-quinazolin-4-yl)-phenyl]-2-(1,4-dimethyl-6-oxo-1,6-dihydropyridin-2-yl)-acetamide] | > 30 | 10000 to 30000 | – | – | > 25000 | –
COc1ccc([C@@H](O)c2ccc(F)c(-c3ncnc4cc(N5CCOCC5)ccc34)c2)nn1 [Example 72, (S)-[4-Fluoro-3-(7-morpholin-4-yl-quinazolin-4-yl)phenyl]-(6-methoxypyridazin-3-yl)methanol] | – | – | < 3 | 500 to 5000 | – | Ki (Kv11.1 (hERG); [5]): > 25000 nM
CC(C)n1cc(C(O)c2ccc(F)c(-c3ncnc4cc(N5CCOCC5)ccc34)c2)cn1 (stereo not drawn) [Example 197, [4-Fluoro-3-(7-morpholin-4-yl-quinazolin-4-yl)-phenyl]-(1-isopropyl-1H-pyrazol-4-yl)-methanol] | – | – | – | – | – | IC50 (DNA-PK; Table 5): 3 to 7 nM; Ki (Kv11.1 (hERG); read-out: Ki [Kv1.11 hERG], Table 5): < 10000 nM; IC50 ([1]; Table 5, HCT116 cells): 5000 to 10000 nM
OC(c1ccc(F)c(-c2ncnc3cc(N4CCOCC4)ccc23)c1)c1nccnc1Cl (stereo not drawn) [Example 54, (3-Chloro-pyrazin-2-yl)-[4-fluoro-3-(7-morpholin-4-yl-quinazolin-4-yl)phenyl]-methanol] | – | – | < 3 | < 500 | – | Ki (Kv11.1 (hERG); [7]): 15000 to 25000 nM
OC(c1ccc(F)c(-c2ncnc3cc(N4CCOCC4)ccc23)c1)c1c(F)cncc1Cl (stereo not drawn) [Example 77, (3-Chloro-5-fluoro-pyridin-4-yl)-[4-fluoro-3-(7-morpholin-4-yl-quinazolin-4-yl)phenyl]-methanol] | – | – | 3 to 7 | < 500 | – | Ki (Kv11.1 (hERG); [7]): 10000 to 15000 nM
Nc1cncc(C(O)c2ccc(F)c(-c3ncnc4cc(N5CCOCC5)ccc34)c2)n1 (stereo not drawn) [Example 302, (6-Amino-pyrazin-2-yl)-[4-fluoro-3-(7-morpholin-4-yl-quinazolin-4-yl)-phenyl]methanol] | 3 to 7 | 5000 to 10000 | – | – | > 25000 | –
O=c1ccc(C(O)c2ccc(F)c(-c3ncnc4cc(N5CCOCC5)ccc34)c2)n[nH]1 (stereo not drawn) [Example 76, 6-{[4-Fluoro-3-(7-morpholin-4-yl-quinazolin-4-yl)phenyl]-hydroxymethyl}-2H-pyridazin-3-one] | – | – | < 3 | 500 to 5000 | – | Ki (Kv11.1 (hERG); [5]): > 25000 nM
COc1cncnc1C(O)c1ccc(F)c(-c2ncnc3cc(N4CCOCC4)ccc23)c1 (stereo not drawn) [Example 87, [4-Fluoro-3-(7-morpholin-4-yl-quinazolin-4-yl)-phenyl]-(5-methoxy-pyrimidin-4-yl)-methanol] | – | – | < 3 | < 500 | – | Ki (Kv11.1 (hERG); [7]): 15000 to 25000 nM

Second part, led by results:

IC50 (DNA-PK; biochemical DNA-PK assay) [nM] | IC50 [1, 3] [nM] | IC50 (DNA-PK; enzymatic, 5 μM ATP) [nM] | IC50 [1, 6] [nM] | Compound | Ki (Kv11.1 (hERG); [2]) [nM] | further results
7 to 30 | 500 to 5000 | – | – | Cn1cnc2c(C(O)c3cc(-c4ncnc5cc(N6CCOCC6)ccc45)c(F)cc3F)ncnc21 (stereo not drawn) [Example 421, [2.4-Difluoro-5-(7-morpholin-4-yl-quinazolin-4-yl)-phenyl]-(9-methyl-9H-purin-6-yl)-methanol] | > 25000 | –
7 to 30 | 500 to 5000 | – | – | Cc1nccnc1C(O)c1cc(-c2ncnc3cc(N4CCOCC4)ccc23)ccc1Cl (stereo not drawn) [Example 427, [2-Chloro-5-(7-morpholin-4-yl-quinazolin-4-yl)-phenyl]-(3-methyl-pyrazin-2-yl)-methanol] | – | Ki (Kv11.1 (hERG); [4]): 15000 to 25000 nM
3 to 7 | 500 to 5000 | – | – | Cc1cncnc1C(C(N)=O)c1cc(-c2ncnc3cc(N4CCOCC4)ccc23)ccc1Cl (stereo not drawn) [Example 378, 2-[2-Chloro-5-(7-morpholin-4-yl-quinazolin-4-yl)-phenyl]-2-(5-methyl-pyrimidin-4-yl)-acetamide] | > 25000 | –
7 to 30 | 500 to 5000 | – | – | OC(c1cc(-c2ncnc3cc(N4CCOCC4)ccc23)ccc1Cl)c1ncnc2ccoc12 (stereo not drawn) [Example 432, [2-Chloro-5-(7-morpholin-4-yl-quinazolin-4-yl)-phenyl]furo[3,2-d}-pyrimidin-4-yl-methanol] | 10000 to 15000 | –
< 3 | 500 to 5000 | – | – | Cn1c(C(O)c2ccc(F)c(-c3ncnc4cc(N5CCOCC5)ccc34)c2)cccc1=O (stereo not drawn) [Example 375, 6-{[4-Fluoro-3-(7-morpholin-4-yl-quinazolin-4-yl)-phenyl]hydroxy-methyl}-1-methyl-1H-pyridin-2-one] | > 25000 | –
< 3 | < 500 | – | – | OC(c1cc(-c2ncnc3cc(N4CCOCC4)ccc23)c(F)cc1Cl)c1ncnc2sccc12 (stereo not drawn) [Example 429, [2-Chloro-4-fluoro-5-(7-morpholin-4-yl-quinazolin-4-yl)-phenyl]thieno[2,3-d}-pyrimidin-4-yl-methanol] | < 10000 | –
7 to 30 | 500 to 5000 | – | – | Cc1cncnc1C(O)c1cc(-c2ncnc3cc(N4CCOCC4)ccc23)ccc1Cl (stereo not drawn) [Example 418, [2-Chloro-5-(7-morpholin-4-yl-quinazolin-4-yl)-phenyl]-(5-methyl-pyrimidin-4-yl)-methanol] | > 25000 | –
7 to 30 | 10000 to 30000 | – | – | OC(c1ccc(F)c(-c2ncnc3cc(N4CCOCC4)ccc23)c1)c1nccn2cnnc12 (stereo not drawn) [Example 351, [4-Fluoro-3-(7-morpholin-4-yl-quinazolin-4-yl)-phenyl]-[1,2,4]-triazolo[4,3-a]-pyrazin-8-ylmethanol] | > 25000 | –
7 to 30 | 500 to 5000 | – | – | OC(c1ccc(F)c(-c2ncnc3cc(N4CCOCC4)ccc23)c1)c1ncccc1Cl (stereo not drawn) [Example 466, (3-Chloro-pyridin-2-yl)-[4-fluoro-3-(7-morpholin-4-yl-quinazolin-4-yl)-phenyl]methanol] | 15000 to 25000 | –
